Results from PubChem BioAssay (NCI).
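Five concentrations, 48 hours, 96-well plates. Definition used: TGI = concentration required for complete inhibition of growth.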

Experiments:
Assay in all cases: NCI-60 cell line screen, 48 h
[1] = system: A549 NSCLC
[2] = system: ACHN renal
[3] = system: CAKI-1 renal
[4] = system: HCC-2998 colon
[5] = system: HCT-15 colon
[6] = system: HS 578T breast
[7] = system: HT29 colon
[8] = system: IGROV1 ovarian
[9] = system: KM12 colon
[10] = system: LOX IMVI melanoma
[11] = system: M14 melanoma
[12] = system: MCF7 breast
[13] = system: MDA-MB-231 breast
[14] = system: NCI-H226 lung
[15] = system: NCI-H23 lung
[16] = system: OVCAR-8 ovarian
[17] = system: SK-MEL-28 melanoma
[18] = system: SK-MEL-5 melanoma
[19] = system: SN12C renal
[20] = system: SNB-19 CNS

In the case of `COc1cc(/C=C2\C[C@H]3[C@@H]4CC=C5C=C(N6CCCC6)CC[C@]5(C)[C@H]4CC[C@]3(C)C2=O)cc(OC)c1OC`, the TGI [1] is reported as > 51.7 µM, the TGI [2] is reported as 5.46 µM and the TGI [3] is reported as 7.61 µM. The TGI [4] was 3.57 µM, the TGI [5] was 6.53 µM and the TGI [6] was 6.21 µM. The TGI [7] was 8.67 µM, the TGI [8] was 3.83 µM and the TGI [9] was 4.37 µM. It also gave a TGI [10] of 2.87 µM, a TGI [11] of 5.37 µM and a TGI [12] of 11.3 µM. The TGI [13] was 6.62 µM, the TGI [14] was 34.3 µM and the TGI [15] was 7.96 µM. The TGI [16] was 6.1 µM, the TGI [17] was 19.5 µM and the TGI [18] was > 27.9 µM. For the same compound, the TGI [19] was 12.1 µM and the TGI [20] was 18.4 µM.
For `Oc1cc(-c2ccccc2)cn2c1nc1ccccc12`, the TGI [1] was > 100 µM, the TGI [2] was > 100 µM and the TGI [3] was > 100 µM. For the same compound, the TGI [4] was > 100 µM, the TGI [5] was > 100 µM and the TGI [6] was 47.7 µM. For the same compound, the TGI [7] was > 77.7 µM, the TGI [8] was > 38.8 µM and the TGI [9] was > 100 µM. The TGI [10] was > 100 µM, the TGI [11] was > 100 µM and the TGI [12] was > 100 µM. For the same compound, the TGI [13] was > 100 µM, the TGI [14] was > 100 µM and the TGI [15] was > 100 µM. For the same compound, the TGI [16] was > 54.3 µM, the TGI [17] was > 100 µM and the TGI [18] was 29.7 µM. The TGI [19] was > 100 µM and the TGI [20] was > 100 µM.
For `Cc1ccc(C)n1-n1c(Cc2ccccc2)n[nH]c1=O`, the TGI [1] was > 100 µM, the TGI [2] was > 100 µM and the TGI [3] was > 100 µM. The TGI [4] was > 100 µM, the TGI [5] was > 100 µM and the TGI [6] was > 100 µM. The TGI [7] was > 100 µM, the TGI [8] was > 100 µM and the TGI [9] was > 100 µM. For the same compound, the TGI [10] was > 100 µM, the TGI [11] was > 100 µM and the TGI [12] was > 100 µM. For the same compound, the TGI [13] was > 100 µM, the TGI [14] was > 100 µM and the TGI [16] was > 100 µM. The TGI [17] was > 100 µM, the TGI [18] was > 100 µM and the TGI [19] was > 100 µM. The TGI [20] was > 100 µM.
`c1cc(Sc2nc(Sc3ccncc3)nc(Sc3ccncc3)n2)ccn1` was tested, and the TGI [1] was > 100 µM, the TGI [2] was > 100 µM and the TGI [3] was > 100 µM. The TGI [4] was > 100 µM, the TGI [5] was > 100 µM and the TGI [6] was > 100 µM. For the same compound, the TGI [7] was > 100 µM, the TGI [8] was > 100 µM and the TGI [9] was > 100 µM. For the same compound, the TGI [10] was > 100 µM, the TGI [11] was > 100 µM and the TGI [12] was > 100 µM. The TGI [13] was > 100 µM, the TGI [14] was > 100 µM and the TGI [15] was > 100 µM. For the same compound, the TGI [16] was > 100 µM, the TGI [17] was > 100 µM and the TGI [18] was > 100 µM. The TGI [19] was > 100 µM and the TGI [20] was > 100 µM.
With `CC(=O)NC(C)(C)C1CC=C(C)CC1` (centres undefined) the TGI [1] was > 100 µM, the TGI [2] was > 100 µM and the TGI [3] was > 100 µM. For the same compound, the TGI [4] was > 100 µM, the TGI [5] was > 100 µM and the TGI [6] was > 100 µM. For the same compound, the TGI [7] was > 100 µM, the TGI [8] was > 100 µM and the TGI [9] was > 100 µM. The TGI [10] was > 100 µM, the TGI [11] was > 100 µM and the TGI [12] was > 100 µM. The TGI [13] was > 100 µM, the TGI [14] was > 100 µM and the TGI [15] was > 100 µM. The TGI [16] was > 100 µM, the TGI [17] was > 100 µM and the TGI [18] was > 100 µM. For the same compound, the TGI [19] was > 100 µM and the TGI [20] was > 100 µM.
In the case of `CN(CCCCN1CCCC1)CCCN(C)C(=O)Cc1ccc(Cl)c(Cl)c1`, the TGI [1] is reported as 44.5 µM, the TGI [2] is reported as > 100 µM and the TGI [3] is reported as 49.6 µM. For the same compound, the TGI [4] was 16.9 µM, the TGI [5] was 85.1 µM and the TGI [6] was 59.6 µM. It also gave a TGI [7] of 18.1 µM, a TGI [8] of 45.2 µM and a TGI [9] of 25.3 µM. It also gave a TGI [10] of 27.9 µM, a TGI [11] of 38.1 µM and a TGI [12] of 34.4 µM. The TGI [13] was 26.1 µM, the TGI [14] was 51.9 µM and the TGI [15] was 37.7 µM. For the same compound, the TGI [16] was > 100 µM, the TGI [17] was 3.51 µM and the TGI [18] was 23.8 µM. The TGI [19] was 37.8 µM and the TGI [20] was 57.2 µM.
